The record followed here is ChEMBL document CHEMBL1152465, “Comparative evaluation of the inhibitory activities of a series of pyrimidinedione congeners that inhibit human immunodeficiency virus types 1 and 2” (Antimicrob Agents Chemother, 2008).

Series [1] concerns the target Human immunodeficiency virus type 1 reverse transcriptase (Human immunodeficiency virus 1, UniProt Q72547). The series can be described thus: Inhibition of wild type HIV1 reverse transcriptase assessed as 32P-labeled GMP incorporation into nascent DNA strand.
Series [2] can be described thus: Cytotoxicity against human CEM-SS cells by XTT assay. Conditions: read-out: TC50 (the source's name). It counts as cell-based. (Formazan colour is commonly taken as a measure of viable cells.)
Series [3] relates to Human immunodeficiency virus 1. The series can be described thus: Antiviral activity against HIV1 infected in human CEM-SS cells assessed as inhibition of viral replication and virus-induced cytopathic effect by dose-response curve analysis. It counts as functional. Conditions: Human immunodeficiency virus 1, CEM-SS.
Series [4] concerns Human immunodeficiency virus 1. Description: Antiviral activity against HIV1 RF infected in human CEM-SS cells assessed as inhibition of virus-induced cytopathic effect by XTT assay. The series is classed as functional, organism-based. Conditions: Human immunodeficiency virus 1, RF. For orientation: Damage to the host cells serves as the signal in cytopathic effect assays.
Series [5] concerns Human immunodeficiency virus 2. Description: Inhibition of HIV2 reverse transcriptase.
Series [6] is described as follows: Therapeutic index, ratio of TC50 for human CEM-SS cells to EC50 for HIV2 ROD infected in human CEM-SS cells. Conditions: for selectivity ratio: CEM-SS cells, read-out: TI; for TI: cem-ss. The series is classed as cell-based.
Series [7] can be described thus: Cytotoxicity against human HeLa cells expressing CD4-LTR by XTT assay. The series is classed as cell-based. Conditions: read-out: TC50 (the source's name).
Series [8] relates to Human immunodeficiency virus 1. Description: Antiviral activity against HIV1 infected in human HeLa cells expressing CD4-LTR assessed as inhibition of viral entry-related beta galactosidase expression treated for 2 hrs followed by drug wash out measured after 48 hrs by MAGI assay. Conditions: Human immunodeficiency virus 1, HeLa. It counts as functional, organism-based.
Series [9] has as its system Human immunodeficiency virus 2. The series can be described thus: Antiviral activity against HIV2 ROD infected in human CEM-SS cells assessed as inhibition of virus-induced cytopathic effect by XTT assay. It counts as functional, organism-based, ISOLATE ROD.
Series [10] deals with Human immunodeficiency virus 2. Description: Antiviral activity against HIV2 assessed as inhibition of viral replication treated at time points after viral entry into host cells. It counts as functional, organism-based.
Series [11] deals with Human immunodeficiency virus 2. The series can be described thus: Antiviral activity against HIV2 assessed as inhibition of viral single round replication at early time point. It counts as functional, organism-based.
Series [12] concerns Human immunodeficiency virus 2. The series can be described thus: Inhibition of HIV2 reverse transcriptase assessed as 32P-labeled GMP incorporation into nascent DNA strand at highest concentration.
A short description of series [13]: Therapeutic index, ratio of TC50 for human CEM-SS cells to EC50 for HIV1 RF infected in human CEM-SS cells. Conditions: read-out: TI. The series is classed as cell-based.
Series [14] in a line: Therapeutic index, ratio of TC50 human HeLa cells expressing CD4-LTR to EC50 for HIV1 entry inhibition in human HeLa cells expressing CD4-LTR. Conditions: read-out: TI. It counts as cell-based.
Series [15] addresses Human immunodeficiency virus type 1 reverse transcriptase (Human immunodeficiency virus 1, UniProt Q72547, K103N). Description: Inhibition of HIV1 reverse transcriptase K103N mutant assessed as 32P-labeled GMP incorporation into nascent DNA strand.
[16] abbreviates: Human immunodeficiency virus 2, ISOLATE ROD, CEM-SS, read-out: EC50.

Calls of active or inactive are those of the source. A value given as a limit tells only on which side of the number the result lay.

Turning to `Cc1cc(C)cc(C(=O)c2c(C)c(=O)[nH]c(=O)n2CC2CC=CC2)c1`, the half-maximal inhibitory concentration (IC50) in [1] was 12.7 µM; in [15], greater than 295 µM. Further, the CC50 in [2] and in series [7] was 81.9 µM each time. Moreover, in series [3], the concentration for an effect of 99% (EC99) was found to be 1 µM. For the same molecule, the concentration for a half-maximal effect (EC50) was 5.91 µM in [4], 0.68 µM in series [8] and 29.6 µM in series [9] (setting [16]). The result in series [5], in [10] and in series [12] was inactive. For the same molecule, the selectivity ratio in [6] turned out to be 2.8; in series [13], 14; in [14], 121. Besides, the result in [11] was Active.
For `CCc1c(Oc2cc(C)cc(C)c2)n(CC2CCCC2)c(=O)[nH]c1=O`, the IC50 was 0.137 µM in [1] and 0.272 µM in [15]. For the same molecule, the results for the CC50 in series [2] and in series [7] were 20.2 µM and 20.9 µM, respectively. Besides, in series [3], the concentration for an effect of 99% (EC99) is 1 µM. Besides, the EC50 was 0.015 µM in series [4], 0.23 µM in series [8] and 2.9 µM in series [9] (setting [16]). Further, the result in series [5], in [10] and in series [12] was inactive. The selectivity ratio in series [6] worked out at 7; in series [13], 1450; in [14] it was 89. Further, the outcome in series [11] was Active.
Regarding `Cc1cc(C)cc(Sc2c(C(C)C)c(=O)[nH]c(=O)n2CCC2CCCC2)c1`, the IC50 in [1] came out at 0.233 µM; in series [15], 205 µM. For the same molecule, the CC50 worked out at 14.2 µM in series [2] and 15.4 µM in [7]. The EC99 in series [3] amounted to 1 µM. Also, the half-maximal effective concentration (EC50) is 0.15 µM in series [4], 1.28 µM in [8] and “Not Active” in series [9] (cem-ss). Further, the result in [5], in series [10] and in series [12] was inactive. In addition, in series [6], the TI result is listed as “Not Active”. For the same molecule, the result in series [11] was Active. For the same molecule, the selectivity ratio in series [13] was determined as 92; in series [14], 12.
On to `Cc1cc(C)cc(Sc2c(C(C)C)c(=O)[nH]c(=O)n2CC2CCCC2)c1`, for which the IC50 was 0.129 µM in [1] and greater than 268 µM in series [15]. In addition, the CC50 is 7 µM in series [2] and 10.6 µM in series [7]. For the same molecule, the concentration for an effect of 99% (EC99) in series [3] worked out at 1 µM. The EC50 in [4] was 0.011 µM; in [8], 0.27 µM; in [9] (cem-ss), “Not Active”. In addition, the outcome in series [5], in [10] and in [12] was inactive. The TI entry in [6] was “Not Active”. For the same molecule, the outcome in [11] was Active. Besides, the figures for the selectivity ratio in [13] and in series [14] were 1260 and 39, respectively.
On to `Cc1cc(C)cc(Oc2c(C(C)C)c(=O)[nH]c(=O)n2CCC2=CCCC2)c1`, for which the IC50 in [1] was 1.54 µM; in [15], 176 µM. Also, the CC50 in series [2] was 17.1 µM; in series [7], 17.4 µM. In addition, the EC99 in series [3] is 1 µM. Besides, the half-maximal effective concentration (EC50) in [4] is 0.19 µM; in [8], 2.7 µM; in [9] (cem-ss), “Not Active”. The result in [5], in series [10] and in [12] was inactive. Further, the TI result in series [6] is on record as “Not Active”. The result in series [11] was Active. The selectivity ratio is 90 in series [13] and 6 in [14].
In the case of `CC(C)c1c(Oc2ccccc2)n(CC2CC=CC2)c(=O)[nH]c1=O`, the figures for the IC50 in series [1] and in series [15] were 4.91 µM and greater than 306 µM, respectively. Also, the figures for the CC50 in series [2] and in series [7] were 1100 µM and 1120 µM, respectively. Also, in series [3], the EC99 stood at 1 µM. Besides, the EC50 was 0.02 µM in [4], 0.26 µM in series [8] and 30.7 µM in series [9] (setting [16]). For the same molecule, the result in [5], in series [10] and in series [12] was inactive. The selectivity ratio in [6] came to 37.1; in series [13], 55200; in series [14] it was 4370. Besides, the result in series [11] was Active.
For `CCc1c(Sc2cc(C)cc(C)c2)n(CC2CC=CC2)c(=O)[nH]c1=O`, the 50% inhibitory concentration (IC50) in [1] came out at 0.21 µM; in series [15], 2.4 µM. Also, the CC50 in series [2] worked out at 18.3 µM; in series [7], 38.9 µM. Also, in series [3], the EC99 stood at 1 µM. The results for the half-maximal effective concentration (EC50) in series [4], in series [8] and in [9] (setting [16]) were 0.0066 µM, 0.26 µM and 0.5 µM, respectively. Moreover, the outcome in series [5], in [10] and in series [12] was inactive. The results for the selectivity ratio in [6], in [13] and in [14] were 38.2, 9060 and 148, respectively. Further, in [11], the result was Active.
On to `Cc1cc(C)cc(C(=O)c2c(C(C)C)c(=O)[nH]c(=O)n2CCC2CC=CC2)c1`, for which the results for the half-inhibitory concentration (IC50) in series [1] and in [15] were 0.011 µM and 1.7 µM, respectively. Besides, the CC50 in series [2] was found to be 13.9 µM; in series [7], 24.9 µM. Besides, the concentration for an effect of 99% (EC99) in [3] is 1 µM. Besides, the results for the concentration for a half-maximal effect (EC50) in [4], in series [8] and in series [9] (setting [16]) were 0.015 µM, 0.82 µM and 0.6 µM, respectively. Moreover, the result in series [5], in series [10] and in series [12] was inactive. Moreover, the selectivity ratio in [6] amounted to 23; in [13], 2390; in series [14] it was 30. Further, in series [11], the outcome was Active.
`Cc1cc(C)cc(C(=O)c2c(C(C)C)c(=O)[nH]c(=O)n2CCC2=CCCC2)c1`: the figures for the IC50 in [1] and in series [15] were 0.223 µM and 230 µM, respectively. Also, the CC50 in series [2] was 19.2 µM; in series [7] it was 29.4 µM. Further, in series [3], the 99% effect concentration (EC99) came to 1 µM. Also, the half-maximal effective concentration (EC50) in series [4] was 0.053 µM; in series [8] it was 0.03 µM; in series [9] (cem-ss), “Not Active”. The result in [5], in series [10] and in [12] was inactive. Also, the TI result in series [6] is listed as “Not Active”. The outcome in series [11] was Active. Besides, the values for the selectivity ratio in [13] and in series [14] were 750 and 1040, respectively.
As to `CCc1c(C(=O)c2cc(C)cc(C)c2)n(Cc2ccccc2)c(=O)[nH]c1=O`, the IC50 turned out to be 0.025 µM in [1] and 2.3 µM in series [15]. The CC50 in series [2] was 24.6 µM; in series [7], 562 µM. Also, in [3], the concentration for an effect of 99% (EC99) turned out to be 1 µM. For the same molecule, the EC50 came to 0.016 µM in series [4], 0.05 µM in [8] and 0.4 µM in series [9] (setting [16]). The result in series [5], in [10] and in series [12] was inactive. Besides, the values for the selectivity ratio in [6], in series [13] and in series [14] were 59.3, 68300 and 10200, respectively. In series [11], the outcome was Active.
For the molecule `CCc1c(C(=O)c2cc(C)cc(C)c2)n(CC2CCC2)c(=O)[nH]c1=O`, the IC50 in [1] amounted to 2.4 µM; in [15], 4.38 µM. Further, the CC50 in series [2] and in series [7] was 850 µM throughout. Further, the 99% effect concentration (EC99) in [3] is 1 µM. Further, the EC50 in [4] came out at 0.014 µM; in series [8], 0.06 µM; in series [9] (setting [16]) it was 4.5 µM. For the same molecule, the outcome in [5], in series [10] and in [12] was inactive. The selectivity ratio in series [6] was 190; in series [13], 60700; in series [14], 14500. Also, the result in series [11] was Active.
Consider `Cc1cc(C)cc(C(=O)c2c(C(C)C)c(=O)[nH]c(=O)n2CC2CCCCC2)c1`, for which the IC50 in series [1] stood at 0.008 µM; in series [15] it was 16.5 µM. The CC50 in [2] was found to be 16.2 µM; in series [7] it was 30.4 µM. For the same molecule, the 99% effect concentration (EC99) in series [3] was 1 µM. For the same molecule, the EC50 in [4] is 0.0052 µM; in [8], 0.24 µM; in [9] (setting [16]), 0.7 µM. Besides, the result in [5], in [10] and in series [12] was inactive. For the same molecule, the figures for the selectivity ratio in series [6], in [13] and in series [14] were 23.8, 8550 and 127, respectively. Moreover, the outcome in series [11] was Active.

A word on the IC50: it is the concentration that gives 50% inhibition. By EC99 is commonly meant the concentration needed for an effect of 99%. For orientation: EC50 means the concentration at which the effect is half-maximal.
